Measurements reported in patent publication US11261478B2, “Thermal stable luciferase with improved resistance to inhibition by luciferin break-down products” (priority 2016, dated 2022).

Columns and labels:
[1] = molecular target: T1, UltraGlo luciferase (parent, ULTRA GLO luciferase, SEQ ID NO: 3) (Photuris pensylvanica, UniProt Q27757, A101V/A17E/A262V/C221A/D34A/D353K/D394P/E2A/F294L/F367L/F500Y/G84S/H14Y/H220I/I125V/I173S/K413N/L193S/L91V/N183Y/N412D/N499D/P295A/R357K/S105N/S204P/S36P/S399G/S502A/T234S/T249M/T354G/T386P/V145I/V194I/V203L/V300C/V356A/Y144S/Y27D); assay: Competitive inhibition of F-luciferin luminescence by dehydro-F-luciferin, purified UltraGlo luciferase; assay type: biochemical; details: F-luciferin 1 mM, ATP 0.5 mM final, 3 minutes at room temperature, Michaelis-Menten competitive inhibition model
T1 construct: full length, 552 aa
T1 sequence (Q27757 other isoform, or with tags, fused parts or gaps with the stated changes): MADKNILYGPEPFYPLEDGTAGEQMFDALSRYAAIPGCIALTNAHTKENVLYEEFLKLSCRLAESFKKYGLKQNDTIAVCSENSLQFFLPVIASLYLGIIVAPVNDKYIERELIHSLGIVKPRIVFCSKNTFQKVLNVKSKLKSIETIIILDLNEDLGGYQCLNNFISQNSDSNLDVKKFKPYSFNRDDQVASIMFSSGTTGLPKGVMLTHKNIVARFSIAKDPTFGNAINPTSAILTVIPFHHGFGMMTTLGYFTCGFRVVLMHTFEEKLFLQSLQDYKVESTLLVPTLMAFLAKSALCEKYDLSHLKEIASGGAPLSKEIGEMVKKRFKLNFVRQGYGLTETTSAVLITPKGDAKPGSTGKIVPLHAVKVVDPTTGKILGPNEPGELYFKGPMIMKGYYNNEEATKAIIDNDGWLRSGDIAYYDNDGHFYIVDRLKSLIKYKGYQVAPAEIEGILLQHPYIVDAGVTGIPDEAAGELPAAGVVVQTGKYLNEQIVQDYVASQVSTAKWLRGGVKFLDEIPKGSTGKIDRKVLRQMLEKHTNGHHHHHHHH
Protocol: (§1) To explore the inhibition of F-luciferin luminescence by dehydro-F-luciferin by combination mutants, the mutant Triple+300 (H244W, T344A, I396K, C300G) was screened for its resistance to dehydroluciferin.
(§2) Purified UltraGlo and Triple+300 luciferase enzymes were serially diluted from stocks in 1×TBS+1.0% Prionex to a concentration of 0.01 mg/ml. Racemic F-luciferin was serially diluted from stocks in water to 22 mM. Racemic dehydro-F-luciferin was serially diluted from stocks in water to 10 mM, and then 8 consecutive 4-fold serial dilutions were carried out for each concentration tested. ATP was diluted to 1 mM in BrightGlo Buffer or Detection Reagent buffer (depending on final reaction destination) to 1 mM concentration.
(§3) The following components were then combined into wells of a flat bottom, white, 96-well plate: 50 ul diluted ATP in buffer (BrightGlo or Detection Reagent; 0.5 mM final concentration), 50 ul diluted luciferase enzyme ([…] final concentration), 5 ul diluted F-luciferin (1 mM final concentration), and 4 ul diluted dehydro-F-luciferin ([…] final concentration)
(§4) Reactions were incubated for 3 minutes at room temperature, and luminescence was measured using a GloMax Multi+plate reader. Data were analyzed in GraphPad Prism 7 using nonlinear regression by fitting the data to a Michaelis-Menten competitive inhibition enzyme kinetic model.

[2] = molecular target: UltraGlo luciferase variant Triple+300 (H244W, T344A, I396K, C300G), SEQ ID NO: 11 (Photuris pensylvanica, UniProt Q27757, A101V/A17E/A262V/C221A/D34A/D353K/D394P/E2A/F294L/F367L/F500Y/G84S/H14Y/H220I/H244W/I125V/I173S/I396K/K413N/L193S/L91V/N183Y/N412D/N499D/P295A/R357K/S105N/S204P/S36P/S399G/S502A/T234S/T249M/T344A/T354G/T386P/V145I/V194I/V203L/V300G/V356A/Y144S/Y27D); assay: Competitive inhibition of F-luciferin luminescence by dehydro-F-luciferin, purified Triple+300 luciferase mutant; assay type: biochemical; details: F-luciferin 1 mM, ATP 0.5 mM final, 3 minutes at room temperature, Michaelis-Menten competitive inhibition model
UltraGlo luciferase variant Triple+300 (H244W, T344A, I396K, C300G), SEQ ID NO: 11, sequence (Q27757 other isoform, or with tags, fused parts or gaps with the stated changes): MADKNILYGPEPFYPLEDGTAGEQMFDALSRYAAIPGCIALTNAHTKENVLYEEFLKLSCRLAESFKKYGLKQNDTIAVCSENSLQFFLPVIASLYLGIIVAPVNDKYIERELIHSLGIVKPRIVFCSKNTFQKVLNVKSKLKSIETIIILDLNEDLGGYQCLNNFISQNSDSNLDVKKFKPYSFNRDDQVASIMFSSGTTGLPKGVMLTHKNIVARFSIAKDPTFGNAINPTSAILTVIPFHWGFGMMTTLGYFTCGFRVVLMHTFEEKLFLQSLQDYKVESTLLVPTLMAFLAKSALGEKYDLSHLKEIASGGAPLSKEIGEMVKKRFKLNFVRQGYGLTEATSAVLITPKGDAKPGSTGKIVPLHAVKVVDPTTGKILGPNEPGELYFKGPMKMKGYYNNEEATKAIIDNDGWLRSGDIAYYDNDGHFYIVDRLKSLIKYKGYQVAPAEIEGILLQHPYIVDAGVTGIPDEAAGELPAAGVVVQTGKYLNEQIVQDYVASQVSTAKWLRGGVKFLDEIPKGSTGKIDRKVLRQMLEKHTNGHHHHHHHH
Protocol: as §1, §2, §3, §4

Work on `O=C(O)c1csc(-c2nc3cc(F)c(O)cc3s2)n1` [dehydro-F-luciferin] yielded a Ki ([1]; BrightGlo buffer) of 39.9 nM, a Ki ([1]; Detection Reagent buffer) of 420 nM and a Ki ([2]; BrightGlo buffer) of 71.8 nM. For the same molecule, the Ki ([2]; Detection Reagent buffer) was 563 nM.
